In PubChem BioAssay AID2060624 (Molecular Pharmacology Branch, DTP, NCI, 2025):

Test system: 217524-143-R1-J4-PDC spheroids with HUVEC/MSC, viability
Assay: Anticancer human tumor 217524-143-R1-J4-PDC patient-derived pancreatic carcinoma cell line growth inhibition [CLK]
Settings: for IC50: curve of first compound; for viability, T/C: stronger effect = lower value
Description: A high-throughput screen of multi-cell type tumor spheroids was designed to identify active combinations of […] and targeted small molecules. Complex spheroids include a stromal component modeled by human endothelial cells (HUVEC) and fibroblasts modeled by human mesenchymal stem cells (MSCs). The concentration ranges selected for each drug and investigational agent were based upon clinically achievable concentrations if the clinical Cmax of the agent was known.
Compounds. The drugs and investigational agents: cirtuvivint (SM08502; NSC835563), CC-671 (NSC850746), vemurafenib (NSC761431), tapotoclax (NSC804041), sotorasib (NSC818433), adagrasib (NSC831453), MRTX-1133 (NSC836407), BAY2416964 (NSC825713), copanlisib (NSC816437), inavolisib (NSC800729), abemaciclib (NSC768073), osimertinib (NSC779217), entinostat (NSC756642), eltanexor (KPT-8602, NSC794443), venetoclax (NSC766270), ceralasertib (NSC777638), bortezomib (NSC756655), olaparib (NSC753686), talazoparib (NSC767125), alisertib (NSC759677), peposertib (NSC802822), gemcitabine (NSC613327), 5-fluorouracil (NSC19893), SN-38 (NSC673596), oxaliplatin (NSC266046), paclitaxel (NSC125973), and doxorubicin (NSC123127), were obtained from the National Cancer Institute (NCI) Developmental Therapeutics Program Chemical Repository. The FDA-approved anticancer drug set is available from the Developmental Therapeutics Program at https://dtp.cancer.gov/organization/dscb/obtaining/available plates.htm. […] The stock solutions were prepared in dimethyl sulfoxide (DMSO, Sigma-Aldrich, St. Louis, MO, cat. D2650), except for the platinum complexes which were prepared in saline (Quality Biological, Gaithersburg, MD, cat. 114-055-101), at 800-fold the tested concentration and stored at -70 degrees C prior to their use. All drugs and investigational agents were tested over a range starting from a high concentration at or near the clinical Cmax and decreasing in half-log increments. If the clinical Cmax for an agent had not been determined, the highest concentration tested was 10 microM.
Cell Culture. All cells were maintained in an incubator at 37 degrees C and 5% CO2 with 95% humidity. The PDC lines were cultured according to standard operating procedures established by the NCI PDMR. Briefly, all PDCs were thawed and cultured in Matrigel-coated flasks prepared with a working solution of 1X Ham's F-12 nutrient mix, without supplementation (Invitrogen, Waltham, MA, cat. 11765054), 100 U/mL penicillin-streptomycin (Invitrogen, cat. 15140122), and 2.5% Matrigel (Corning Inc., Corning, NY, cat. 354248) for the first three passages. The 947758-054-R-J2-PDC line was cultured in 6B/Colon 1A media, which includes advanced DMEM/F-12 (Thermo Fisher Scientific, cat. 12634028), 10 mM HEPES (Thermo Fisher Scientific, cat. 15630080), 1X GlutaMAX supplement (Thermo Fisher Scientific, cat. 35050061), 0.1 mg/mL primocin (InvivoGen, cat. ant-pm-2), 10% defined fetal bovine serum, heat inactivated (HyClone Laboratories Inc., cat. SH30070.03HI), 1.25 mM N-Acetyl-L-cysteine (Sigma-Aldrich, cat. A9165), 10 mM nicotinamide (Sigma-Aldrich, cat. N0636), 1X B-27 supplement (Thermo Fisher Scientific, cat. 17504044), 1X N-2 supplement (Thermo Fisher Scientific, cat. 17502048), and 10 microM Y-27632 dihydrochloride (Tocris Bioscience, cat. 1254). The 876862-298-R-J1-PDC was cultured in 6E media, which includes all 6B/Colon 1A media components plus 50% L-WRN conditioned media (ATCC, cat. CRL-3276), 50 ng/mL recombinant human EGF recombinant protein (hEGF; Thermo Fisher Scientific, cat. PHG0311), 10 ng/mL recombinant human fibroblast growth factor 10 (hGFG-10; PeproTech, cat. 100-26), 1 ng/mL recombinant human fibroblast growth factor 2 (hFGF-2; PeproTech, cat. 100-18B), and 1 µM prostaglandin E2 (PGE2; Tocris, cat. 2296). The 227483-062-R1-J1-PDC line was cultured in Panc media, containing all 6E components except hFGF-2, with the addition of 500 nM SB-431542 (Selleckchem, cat. S1067) and 10 nM gastrin (Tocris, cat. 3006). […]

[1] = second compound 0.0316 µM, first compound 0.0316 µM
[2] = second compound 0.0316 µM, first compound 0.1 µM
[3] = second compound 0.0316 µM, first compound 0.316 µM
[4] = second compound 0.0316 µM, first compound 1 µM
[5] = second compound 0.0316 µM, first compound 3.16 µM
[6] = second compound 0.0316 µM, first compound 10 µM
[7] = second compound 0.1 µM, first compound 0.0316 µM
[8] = second compound 0.1 µM, first compound 0.1 µM
[9] = second compound 0.1 µM, first compound 0.316 µM
[10] = second compound 0.1 µM, first compound 1 µM
[11] = second compound 0.1 µM, first compound 3.16 µM
[12] = second compound 0.1 µM, first compound 10 µM
[13] = second compound 0.316 µM, first compound 0.0316 µM
[14] = second compound 0.316 µM, first compound 0.1 µM
[15] = second compound 0.316 µM, first compound 0.316 µM
[16] = second compound 0.316 µM, first compound 1 µM
[17] = second compound 0.316 µM, first compound 3.16 µM
[18] = second compound 0.316 µM, first compound 10 µM
[19] = second compound 1 µM, first compound 0.0316 µM
[20] = second compound 1 µM, first compound 0.1 µM
[21] = second compound 1 µM, first compound 0.316 µM
[22] = second compound 1 µM, first compound 1 µM
[23] = second compound 1 µM, first compound 3.16 µM
[24] = second compound 1 µM, first compound 10 µM
[25] = second compound 3.16 µM, first compound 0.0316 µM
[26] = second compound 3.16 µM, first compound 0.1 µM
[27] = second compound 3.16 µM, first compound 0.316 µM
[28] = second compound 3.16 µM, first compound 1 µM
[29] = second compound 3.16 µM, first compound 3.16 µM
[30] = second compound 3.16 µM, first compound 10 µM
[31] = second compound 10 µM, first compound 0.0316 µM
[32] = second compound 10 µM, first compound 0.1 µM
[33] = second compound 10 µM, first compound 0.316 µM
[34] = second compound 10 µM, first compound 1 µM
[35] = second compound 10 µM, first compound 3.16 µM
[36] = second compound 10 µM, first compound 10 µM
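Further: spheroids exposed to agents for seven days before reading.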
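Wherever viability, T/C is given: 100% = DMSO vehicle control viability.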

In the case of `CCCS(=O)(=O)Nc1ccc(F)c(C(=O)c2c[nH]c3ncc(-c4ccc(Cl)cc4)cc23)c1F` + CN1CCN(c2cc(C(=O)Nc3cc4cc(-c5cnn(C)c5)ccc4cn3)ccn2)CC1, the IC50 (second compound 0.0316 µM) is reported as > 10000 nM, the IC50 (second compound 0.1 µM) is reported as > 10000 nM and the IC50 (second compound 0.316 µM) is reported as < 31.6 nM. For the same compound, the IC50 (second compound 1 µM) was < 31.6 nM, the IC50 (second compound 3.16 µM) was < 31.6 nM and the IC50 (second compound 10 µM) was < 31.6 nM. The viability, T/C [1] was 86.3%, the viability, T/C [2] was 69.2% and the viability, T/C [3] was 107%. It also gave a viability, T/C [4] of 124%, a viability, T/C [5] of 135% and a viability, T/C [6] of 61.4%. For the same compound, the viability, T/C [7] was 61.4%, the viability, T/C [8] was 67.7% and the viability, T/C [9] was 62.4%. It also gave a viability, T/C [10] of 78.8%, a viability, T/C [11] of 100% and a viability, T/C [12] of 44.4%. The viability, T/C [13] was 26.1%, the viability, T/C [14] was 26.4% and the viability, T/C [15] was 33.3%. For the same compound, the viability, T/C [16] was 32.9%, the viability, T/C [17] was 34.9% and the viability, T/C [18] was 19.9%. It also gave a viability, T/C [19] of 2.26%, a viability, T/C [20] of 2.37% and a viability, T/C [21] of 2.29%. It also gave a viability, T/C [22] of 3.2%, a viability, T/C [23] of 2.09% and a viability, T/C [24] of 2.01%. The viability, T/C [25] was 0.92%, the viability, T/C [26] was 0.96% and the viability, T/C [27] was 1.2%. It also gave a viability, T/C [28] of 1.02%, a viability, T/C [29] of 1.17% and a viability, T/C [30] of 0.97%. It also gave a viability, T/C [31] of 0.29%, a viability, T/C [32] of 0.32% and a viability, T/C [33] of 0.65%. For the same compound, the viability, T/C [34] was 0.3%, the viability, T/C [35] was 1.04% and the viability, T/C [36] was 1.34%.

In the case of `COC1C=CCC(C)C(C)S(=O)(=O)NC(=O)c2ccc3c(c2)N(CC2CCC21)CC1(CCCc2cc(Cl)ccc21)CO3` (centres undefined) + CN1CCN(c2cc(C(=O)Nc3cc4cc(-c5cnn(C)c5)ccc4cn3)ccn2)CC1, the IC50 (second compound 0.0316 µM) is reported as 6400 nM, the IC50 (second compound 0.1 µM) is reported as 4170 nM and the IC50 (second compound 0.316 µM) is reported as < 31.6 nM. The IC50 (second compound 1 µM) was < 31.6 nM, the IC50 (second compound 3.16 µM) was < 31.6 nM and the IC50 (second compound 10 µM) was < 31.6 nM. The viability, T/C [1] was 90.2%, the viability, T/C [2] was 93.2% and the viability, T/C [3] was 75%. For the same compound, the viability, T/C [4] was 91.2%, the viability, T/C [5] was 107% and the viability, T/C [6] was 23.8%. The viability, T/C [7] was 65.7%, the viability, T/C [8] was 67.5% and the viability, T/C [9] was 56%. For the same compound, the viability, T/C [10] was 61.4%, the viability, T/C [11] was 58.5% and the viability, T/C [12] was 24.5%. It also gave a viability, T/C [13] of 23.9%, a viability, T/C [14] of 23.3% and a viability, T/C [15] of 23.3%. The viability, T/C [16] was 22.9%, the viability, T/C [17] was 27% and the viability, T/C [18] was 16.6%. For the same compound, the viability, T/C [19] was 2.49%, the viability, T/C [20] was 1.84% and the viability, T/C [21] was 1.71%. The viability, T/C [22] was 1.6%, the viability, T/C [23] was 1.08% and the viability, T/C [24] was 1.77%. It also gave a viability, T/C [25] of 0.91%, a viability, T/C [26] of 1.31% and a viability, T/C [27] of 0.81%. The viability, T/C [28] was 1%, the viability, T/C [29] was 1.26% and the viability, T/C [30] was 0.8%. It also gave a viability, T/C [31] of 1.26%, a viability, T/C [32] of 0.35% and a viability, T/C [33] of 0.37%. The viability, T/C [34] was 0.37%, the viability, T/C [35] was 0.36% and the viability, T/C [36] was 1.06%.
